Reference: patent publication KR20210056931A, “피리메타민을 유효성분으로 포함하는 면역 관련 질환의 치료 또는 예방용 약학 조성물” (priority 2019, dated 2021)

What was measured:
TNF-α [1] = experiment: TNF-α expression inhibition in Raw264.7 by treatment time, Experiment 1-2; format: cell-based; conditions: LPS 100 ng/ml
TNF-α [2] = experiment: TNF-α expression inhibition in Raw264.7, comparison with tofacitinib, Experiment 2-2; format: cell-based; conditions: for TNF-α expression: 6 h pretreatment, LPS 10 ng/mL 16 h
TNF-α [3] = experiment: TNF-α expression inhibition in Raw264.7, comparison with hydroxychloroquine and proguanil, Experiment 2-3; format: cell-based
STAT3 = STAT3 activity (nuclear translocation) in Raw264.7, Experiment 3; format: cell-based; conditions: 50 ng/ml, 2 h pretreatment; LPS 100 ng/ml 16 h; Fig. 6
NF-ĸB(p65) = experiment: NF-kB activity (p65 nuclear translocation) in Raw264.7, Experiment 4; format: cell-based; conditions: 50 ng/ml, 2 h pretreatment; LPS 100 ng/ml 2 h; Fig. 7
[4] = tested on: rheumatoid arthritis model, DBA-1J Mice [류마티스 관절염 모델]; experiment: Arthritis score in rheumatoid arthritis animal model, Experiment 5; format: in vivo, mouse
[5] = tested on: rheumatoid arthritis model, DBA-1J Mice [류마티스 관절염 모델]; experiment: Paw edema in rheumatoid arthritis animal model, Experiment 5; format: in vivo, mouse
[6] = tested on: rheumatoid arthritis model, DBA-1J Mice [류마티스 관절염 모델]; experiment: Histopathological examination in rheumatoid arthritis animal model, Experiment 5; format: in vivo, mouse; conditions: Day 14
[7] = tested on: rheumatoid arthritis model, DBA-1J Mice [류마티스 관절염 모델]; experiment: Histopathological examination in rheumatoid arthritis animal model, dose regimen study, Experiment 6; format: in vivo, mouse; conditions: Day 14

In the case of `CCc1nc(N)nc(N)c1-c1ccc(Cl)cc1` [피리메타민, Pyrimethamine], the “TNF-α expression, concentration dependence” value (TNF-α [1]; 2 or 50 ng/ml, 1 or 2 h) is reported as “TNF-α의 발현량이 피리메타민의 농도 의존적으로 줄어드는”, the TNF-α expression (TNF-α [1]; PYR 2 ng/ml, 1hr) is reported as 916.0 pg/mL and the TNF-α expression (TNF-α [1]; PYR 2 ng/ml, 2hr) is reported as 1101.2 pg/mL. For the same compound, the TNF-α expression (TNF-α [1]; PYR 50 ng/ml, 1hr) was 686.4 pg/mL, the TNF-α expression (TNF-α [1]; PYR 50 ng/ml, 2hr) was 889.0 pg/mL and the TNF-α expression (TNF-α [2]; PYR 50 ng/mL) was 185.3 pg/mL. The TNF-α expression (TNF-α [2]; PYR 100 ng/mL) was 53.3 pg/mL, the “TNF-α expression compared with tofacitinib” value (TNF-α [2]; Raw264.7, LPS 10 ng/ml 16 h) was “토파시티닙과 달리 TNF-α의 발현량을 직접적으로 억제” and the TNF-α expression (TNF-α [3]; PY 0.2 uM, HCQ 0.61 uM, PG 5 uM, LPS 10 ng/mL, 24 h co-treatment) was 667.9. The TNF-α expression inhibition (TNF-α [3]; drug treatment 2 h or 24 h, pyrimethamine 0.2 μM, proguanil 5 μM) was “히드록시클로로퀸과 비교하였을 때 피리메타민의 TNF-α 발현량 억제능이 월등함”, the STAT3 nuclear translocation (STAT3) was “LPS 16 시간 자극에 의한 STAT3의 핵이동을 억제함” and the “NF-ĸB(p65) activity” value (NF-ĸB(p65)) was “NF-ĸB(p65)의 활성이 현저히 저하”. For the same compound, the Arthritis score ([4]; Day 0, G4: Py 10 mg/kg/day PO) was 2.3±1.6 Total score, the Arthritis score ([4]; Day 0, G5: Py 30 mg/kg/day PO) was 2.3±1.4 Total score and the Arthritis score ([4]; Day 2, G4: Py 10 mg/kg/day PO) was 4.0±1.6 Total score. For the same compound, the Arthritis score ([4]; Day 2, G5: Py 30 mg/kg/day PO) was 2.7±1.8 Total score, the Arthritis score ([4]; Day 4, G4: Py 10 mg/kg/day PO) was 4.6±1.8 Total score and the Arthritis score ([4]; Day 4, G5: Py 30 mg/kg/day PO) was 4.0±2.7 Total score. The Arthritis score ([4]; Day 7, G4: Py 10 mg/kg/day PO) was 5.4±2.4 Total score, the Arthritis score ([4]; Day 7, G5: Py 30 mg/kg/day PO) was 4.0±2.7 Total score and the Arthritis score ([4]; Day 9, G4: Py 10 mg/kg/day PO) was 6.1±2.5 Total score. It also gave an Arthritis score ([4]; Day 9, G5: Py 30 mg/kg/day PO) of 5.3±1.6 Total score, an Arthritis score ([4]; Day 11, G4: Py 10 mg/kg/day PO) of 6.7±2.1 Total score and an Arthritis score ([4]; Day 11, G5: Py 30 mg/kg/day PO) of 5.4±1.5 Total score. The Arthritis score ([4]; Day 14, G4: Py 10 mg/kg/day PO) was 7.3±2.1 Total score, the Arthritis score ([4]; Day 14, G5: Py 30 mg/kg/day PO) was 5.6±1.4 Total score and the “Arthritis score (in words)” value ([4]; pyrimethamine groups, 10 and 30 mg/kg/day PO) was “관절염 지수가 현저하게 감소”. The “Arthritis score compared with methotrexate (in words)” value ([4]; pyrimethamine high dose (30 mg/kg/day) PO) was “메토트렉세이트 투여군에 비해 관절염 지수가 현저하게 낮은”, the “Paw edema, LEFT” value ([5]; Day 0, G4: Py 10 mg/kg/day PO) was 0.11 ± 0.01 mL and the “Paw edema, RIGHT” value ([5]; Day 0, G4: Py 10 mg/kg/day PO) was 0.10 ± 0.00 mL. For the same compound, the “Paw edema, LEFT” value ([5]; Day 0, G5: Py 30 mg/kg/day PO) was 0.11 ± 0.02 mL, the “Paw edema, RIGHT” value ([5]; Day 0, G5: Py 30 mg/kg/day PO) was 0.10 ± 0.01 mL and the “Paw edema, LEFT” value ([5]; Day 14, G4: Py 10 mg/kg/day PO) was 0.15 ± 0.03 mL. The “Paw edema, RIGHT” value ([5]; Day 14, G4: Py 10 mg/kg/day PO) was 0.12 ± 0.01 mL, the “Paw edema, LEFT” value ([5]; Day 14, G5: Py 30 mg/kg/day PO) was 0.11 ± 0.03 mL and the “Paw edema, RIGHT” value ([5]; Day 14, G5: Py 30 mg/kg/day PO) was 0.11 ± 0.02 mL. For the same compound, the Bone destruction ([6]; G4: Py 10 mg/kg/day PO) was 0.9±0.9, the Cartilage damage ([6]; G4: Py 10 mg/kg/day PO) was 1.3±1.0 and the “Histopathological examination, total” value ([6]; G4: Py 10 mg/kg/day PO) was 3.6±2.7. The Synovium proliferation ([6]; G4: Py 10 mg/kg/day PO) was 1.4±1.1, the Bone destruction ([6]; G5: Py 30 mg/kg/day PO) was 0.4±0.8 and the Cartilage damage ([6]; G5: Py 30 mg/kg/day PO) was 0.3±0.5. For the same compound, the “Histopathological examination, total” value ([6]; G5: Py 30 mg/kg/day PO) was 1.1±1.5, the Synovium proliferation ([6]; G5: Py 30 mg/kg/day PO) was 0.4±0.8 and the “Efficacy by histopathology compared with methotrexate (in words)” value ([6]; Py 10 and 30 mg/kg/day PO) was “메토트렉세이트와 비교할 때에도 보다 우수한 효과”. For the same compound, the “Therapeutic efficacy by histopathology (in words)” value ([6]; Py 10 and 30 mg/kg/day PO) was “농도 의존적으로 치료 효능을 보였으며”, the “Efficacy by histopathology compared with hydroxychloroquine and tofacitinib (in words)” value [7] was “히드록시클로로퀸과 토파시티닙에 비해 보다 우수한 효과” and the “Efficacy by histopathology compared with methotrexate (in words)” value [7] was “메토트렉세이트와 유사한 수준의 관절염 치료 효능”. The “Therapeutic efficacy by histopathology (in words)” value [7] was “농도 의존적으로 치료 효능을 보였다”, the Bone destruction ([7]; G7: Py 1 mg/kg/day QD IP) was 2.5±0.5 and the Cartilage damage ([7]; G7: Py 1 mg/kg/day QD IP) was 2.2±1.0. The “Histopathological examination, total” value ([7]; G7: Py 1 mg/kg/day QD IP) was 7.7±1.5, the Synovium proliferation ([7]; G7: Py 1 mg/kg/day QD IP) was 3.0±0.0 and the Bone destruction ([7]; G8: Py 1 mg/kg/day BID PO) was 2.8±0.4. The Cartilage damage ([7]; G8: Py 1 mg/kg/day BID PO) was 2.3±1.2, the “Histopathological examination, total” value ([7]; G8: Py 1 mg/kg/day BID PO) was 7.8±2.4 and the Synovium proliferation ([7]; G8: Py 1 mg/kg/day BID PO) was 2.7±0.8. The Bone destruction ([7]; G9: Py 1 mg/kg/day QD PO) was 2.5±0.8, the Cartilage damage ([7]; G9: Py 1 mg/kg/day QD PO) was 2.3±0.8 and the “Histopathological examination, total” value ([7]; G9: Py 1 mg/kg/day QD PO) was 7.8±1.6. It also gave a Synovium proliferation ([7]; G9: Py 1 mg/kg/day QD PO) of 3.0±0.0, a Bone destruction ([7]; G10: Py 3 mg/kg/day BID PO) of 2.8±0.4 and a Cartilage damage ([7]; G10: Py 3 mg/kg/day BID PO) of 2.0±0.6. For the same compound, the “Histopathological examination, total” value ([7]; G10: Py 3 mg/kg/day BID PO) was 7.8±0.8, the Synovium proliferation ([7]; G10: Py 3 mg/kg/day BID PO) was 3.0±0.0 and the Bone destruction ([7]; G11: Py 5 mg/kg QD PO) was 2.0±0.9.
